In brackets after ≈: the same amount, converted by molar mass.

For series [1], the target named is T1, L-lactate dehydrogenase A chain (Homo sapiens, UniProt P00338). In words: Inhibition of recombinant human LDHA using sodium pyruvate as substrate preincubated for 5 mins followed by diaphorase/resazurin addition and measured after 20 mins by fluorescence based assay. A general note: The colour change of resazurin is a common sign of viable cells or microbes.

Series [2] deals with T1, L-lactate dehydrogenase A chain. The series can be described thus: Inhibition of LDHA in human MIA PaCa2 cells assessed as reduction in lactate production incubated for 2 hrs by fluorescence based assay. It is filed as cell-based, MIA PaCa-2.
In another series the test system is A673. In words: Cytotoxicity against human A673 cells assessed as reduction in cell viability incubated for 48 hrs by cell titer glo assay. It is filed as functional, cell-based. To be noted: A673, 48 h.
The test system of the next series is MIA PaCa-2. The series can be described thus: Cytotoxicity against human MIA PaCa-2 cells assessed as reduction in cell viability incubated for 48 hrs by cell titer glo assay. The note with it: MIA PaCa-2, 48 h. It is filed as functional, cell-based. (ATP-based viability assays read luminescence as a measure of living cells.)
Series [3] deals with T1, L-lactate dehydrogenase A chain. The series can be described thus: Inhibition of LDHA in human A673 cells assessed as reduction in lactate production incubated for 2 hrs by fluorescence based assay. It is filed as cell-based.
Series [4] is described as follows: Metabolic stability in rat microsomes assessed as half life. It is filed as ADME, Microsome.
A short description of series [5]: Permeability of compound by PAMPA. It is filed as ADME. To be noted: read-out: permeability. Background: The PAMPA barrier holds no transporters, so it reflects passive diffusion.
The nature of series [6]: Kinetic solubility of compound. The note with it: read-out: Kinetic_solubility. It is filed as physicochemical.
Series [7] deals with T1, L-lactate dehydrogenase A chain. In words: Binding affinity to LDHA (unknown origin) by SPR analysis.

One may read the IC50 as the point on the concentration scale where inhibition reaches its midpoint. In the case of `NS(=O)(=O)c1ccc(Cc2c(-c3ccc(F)c(Oc4cccc(F)c4)c3)nn(-c3nc(C(=O)O)cs3)c2CC2CC2)cc1F`, the results for the IC50 in series [1] and in [2] were 27 nM and 970 nM, respectively.

Take `NS(=O)(=O)c1ccc(Cc2c(-c3cccc(N4CCC(F)(F)CC4)c3)nn(-c3nc(C(=O)O)cs3)c2CC2CC2)cc1F`: the figures for the IC50 in series [1] and in series [2] were 17 nM and 8700 nM, respectively.

`NS(=O)(=O)c1ccc(Cc2cn(-c3nc(C(=O)O)cs3)nc2-c2cccc(OCc3cccnc3)c2)cc1`: the IC50 in series [1] was 77 nM; in series [2], more than 57000 nM.

As for `COc1cc(-c2nn(-c3nc(C(=O)O)cs3)c(CC3CC3)c2Cc2ccc(S(N)(=O)=O)cc2)ccc1F`, the IC50 in series [1] amounted to 8 nM; in series [2], 5700 nM.

Take `NS(=O)(=O)c1ccc(Cc2c(-c3ccc(F)c(OCC4CCCO4)c3)nn(-c3nc(C(=O)O)cs3)c2CC2CC2)cc1F` (stereo unspecified): the results for the IC50 in [1] and in [2] were 5 nM and 2900 nM, respectively.

As for `NS(=O)(=O)c1ccc(Cc2c(-c3ccc(F)c(Oc4ccccc4)c3)nn(-c3nc(C(=O)O)cs3)c2CC2CC2)cc1`, the IC50 amounted to 34 nM in series [1] and 1700 nM in [2].

On to `NS(=O)(=O)c1ccc(Cc2c(-c3ccc(F)c(OCc4ccc(F)cc4)c3)nn(-c3nc(C(=O)O)cs3)c2CC2CC2)cc1`, for which the IC50 in series [1] was determined as 84 nM; in [2], 3300 nM.

On to `NS(=O)(=O)c1ccc(Cc2c(-c3ccc(F)c(OCC4CCOC4)c3)nn(-c3nc(C(=O)O)cs3)c2CC2CC2)cc1F` (stereo unspecified), for which the IC50 in series [1] is 5 nM; in series [2], 3000 nM.

With `NS(=O)(=O)c1ccc(Cc2c(-c3ccc(F)c(C(=O)N4CCCC4)c3)nn(-c3nc(C(=O)O)cs3)c2CC2CC2)cc1F`, the IC50 in the series on A673 is more than 50000 nM; in series [1], 154 nM; in [2], 19900 nM; in the series with MIA PaCa-2 it was 6600 nM; in series [3], 16600 nM. In series [4], the t1/2 is given as more than 30 min. Moreover, the Papp in series [5] was 5.7 ×10⁻⁶ cm/s. For the same compound, in series [6], the solubility kinetic was more than 93 µg/mL.

For `NS(=O)(=O)c1ccc(Cc2c(-c3cccc(OC4CCCC4)c3)nn(-c3nc(C(=O)O)cs3)c2CC2CC2)cc1F`, the values for the IC50 in series [1] and in series [2] were 13 nM and 710 nM, respectively.

Take `NS(=O)(=O)c1ccc(Cc2cn(-c3nc(C(=O)O)cs3)nc2-c2cccc(OCc3cccc(F)c3)c2)cc1`: the results for the IC50 in series [1] and in series [2] were 26 nM and 6100 nM, respectively.

Consider `COc1cccc(-c2nn(-c3nc(C(=O)O)cs3)cc2Cc2ccc(S(N)(=O)=O)cc2)c1`, for which the IC50 in series [1] is 90 nM; in series [2], more than 57000 nM.

Turning to `NS(=O)(=O)c1ccc(Cc2c(-c3ccc(F)c(C(=O)NCc4ccccc4)c3)nn(-c3nc(C(=O)O)cs3)c2CC2CC2)cc1F`, the IC50 is 5100 nM in the series with A673; 8 nM in [1]; 9100 nM in series [2]; 15700 nM in the series on MIA PaCa-2; 4700 nM in series [3]. For the same compound, the t1/2 in [4] was found to be 14.9 min. Also, in [5], the Papp came to 8.7 ×10⁻⁶ cm/s. Besides, in [6], the solubility kinetic was 81 µg/mL (≈ 122 µM).

`NS(=O)(=O)c1ccc(Cc2cn(-c3nc(C(=O)O)cs3)nc2-c2cccc(OCc3ccccn3)c2)cc1`: the IC50 in series [1] is 23 nM; in series [2], more than 57000 nM.

As to `NS(=O)(=O)c1ccc(Cc2cn(-c3nc(C(=O)O)cs3)nc2-c2cccc(OCC3CCCC3)c2)cc1`, the figures for the IC50 in series [1] and in series [2] were 29 nM and 7700 nM, respectively.

Take `NS(=O)(=O)c1ccc(Cc2c(-c3cccc(N4CCCC(C(F)(F)F)C4)c3)nn(-c3nc(C(=O)O)cs3)c2CC2CC2)cc1F` (stereo unspecified): the results for the IC50 in [1] and in series [2] were 59 nM and 6900 nM, respectively.

Regarding `CC(C)(C)NC(=O)c1cc(-c2nn(-c3nc(C(=O)O)cs3)c(CC3CC3)c2Cc2ccc(S(N)(=O)=O)c(F)c2)ccc1F`, the IC50 in series [1] came out at 6 nM; in [2], 11700 nM.

On to `NS(=O)(=O)c1ccc(Cc2c(-c3ccc(F)c(N4CCCC4=O)c3)nn(-c3nc(C(=O)O)cs3)c2CC2CC2)cc1F`, for which the IC50 in series [1] turned out to be 111 nM; in series [2] it was 6000 nM.

Take `Cc1ccc(COc2cccc(-c3nn(-c4nc(C(=O)O)cs4)cc3Cc3ccc(S(N)(=O)=O)cc3)c2)cc1`: the IC50 in series [1] worked out at 39 nM; in [2], 7500 nM.

As to `NS(=O)(=O)c1ccc(Cc2c(-c3cccc(Oc4cccc(F)c4)c3)nn(-c3nc(C(=O)O)cs3)c2CC2CC2)cc1`, the IC50 amounted to 1060 nM in [1] and 19000 nM in series [2].

With `NS(=O)(=O)c1ccc(Cc2c(-c3ccc(F)c(Oc4ccc(C(F)(F)F)cc4)c3)nn(-c3nc(C(=O)O)cs3)c2CC2CC2)cc1F`, the IC50 turned out to be 71 nM in series [1] and 1100 nM in [2].

For `CC(C)N1CC2(CN(c3cc(-c4nn(-c5nc(C(=O)O)cs5)c(CC5CC5)c4Cc4ccc(S(N)(=O)=O)c(F)c4)ccc3F)C2)C1`, the results for the IC50 in series [1] and in series [2] were 37 nM and 24100 nM, respectively.

Consider `NS(=O)(=O)c1ccc(Cc2c(-c3cccc(N4CCC(C(F)(F)F)CC4)c3)nn(-c3nc(C(=O)O)cs3)c2CC2CC2)cc1F`, for which the results for the IC50 in series [1] and in [2] were 47 nM and 2400 nM, respectively.

Take `NS(=O)(=O)c1ccc(Cc2cn(-c3nc(C(=O)O)cs3)nc2-c2cccc(Oc3ccccc3)c2)cc1`: the results for the IC50 in series [1] and in series [2] were 17 nM and 9400 nM, respectively.

Usually Kd stands for a measure of binding affinity in units of concentration. Low readings indicate higher affinity, high ones lower affinity. `NS(=O)(=O)c1ccc(Cc2c(-c3ccc(F)c(OCC4CC4(F)F)c3)nn(-c3nc(C(=O)O)cs3)c2CC2CC2)cc1F` (stereo unspecified): the IC50 in the series on A673 was 900 nM; in series [1], 5 nM; in series [2], 1400 nM; in the series on MIA PaCa-2 it was 2400 nM; in [3], 1100 nM. The Kd in series [7] was 0.008 nM. Moreover, the t1/2 in series [4] is recorded as more than 30 min. The Papp in series [5] was determined as 4.9 ×10⁻⁶ cm/s. Moreover, the solubility kinetic in series [6] was 76.1 µg/mL (≈ 120 µM).

As to `COc1cccc(COc2cccc(-c3nn(-c4nc(C(=O)O)cs4)cc3Cc3ccc(S(N)(=O)=O)cc3)c2)c1`, the IC50 was found to be 21 nM in series [1] and 5400 nM in series [2].

Regarding `NS(=O)(=O)c1ccc(Cc2c(-c3ccc(F)c(C(=O)N4CCOCC4)c3)nn(-c3nc(C(=O)O)cs3)c2CC2CC2)cc1F`, the IC50 in series [1] was 22 nM; in series [2], 3200 nM.

Regarding `NS(=O)(=O)c1ccc(Cc2c(-c3cccc(N4CCC(F)(F)C4)c3)nn(-c3nc(C(=O)O)cs3)c2CC2CC2)cc1F`, the results for the IC50 in series [1] and in [2] were 15 nM and 4200 nM, respectively.

For `NS(=O)(=O)c1ccc(Cc2c(-c3ccc(F)c(OC4CC4)c3)nn(-c3nc(C(=O)O)cs3)c2CC2CC2)cc1F`, the IC50 in the series with A673 is 1500 nM; in series [1] it was 8 nM; in [2], 2100 nM; with MIA PaCa-2 it was 5700 nM; in [3], 1900 nM. The compound further gave a Kd in series [7] of 0.004 nM. Moreover, the t1/2 in series [4] is listed as more than 30 min. Besides, the Papp in [5] was 5.8 ×10⁻⁶ cm/s. Moreover, the solubility kinetic in [6] was more than 87 µg/mL.

`NS(=O)(=O)c1ccc(Cc2c(-c3ccc(F)c(NC(=O)c4ccccc4)c3)nn(-c3nc(C(=O)O)cs3)c2CC2CC2)cc1F`: the IC50 with A673 was 5300 nM; in [1] it was 7 nM; in [2], 5000 nM; in the series on MIA PaCa-2, 17400 nM; in [3], 2300 nM. Also, in [4], the t1/2 is on record as more than 30 min. For the same compound, the Papp in series [5] is 6.4 ×10⁻⁶ cm/s. Further, in series [6], the solubility kinetic was more than 98 µg/mL.

Turning to `NS(=O)(=O)c1ccc(Cc2c(-c3cccc(N4CCCC(F)(F)C4)c3)nn(-c3nc(C(=O)O)cs3)c2CC2CC2)cc1F`, the IC50 in series [1] amounted to 18 nM; in series [2], 8600 nM.

With `NS(=O)(=O)c1ccc(Cc2c(-c3ccc(F)c(Oc4ccc(F)cc4)c3)nn(-c3nc(C(=O)O)cs3)c2CC2CC2)cc1F`, the IC50 in series [1] is 41 nM; in series [2], 1700 nM.

These data come from ChEMBL document CHEMBL4814030, “Optimization of ether and aniline based inhibitors of lactate dehydrogenase” (Bioorg Med Chem Lett, 2021).
